# In US7888342B2, “Methods of treating fibromyalgia syndrome, chronic fatigue syndrome and pain” (Cypress Bioscience, Inc., priority 2001, dated 2011):
# Columns and labels:
# [1] = test system: patient experiencing fatigue and fibromyalgia; conditions: lofepramine 70 mg bd in combination with L-phenylalanine 500 mg bd; persisted for more than six months; cited from earlier work
# [2] = test system: patients with fibromyalgia syndrome (FMS); experiment: Example 5: multicenter, double-blind, randomized, placebo-controlled monotherapy study of milnacipran for fibromyalgia; format: in vivo, human; conditions: 3-months
# Procedure: This was a multicenter, randomized, double-blind, placebo-controlled three-arm study designed which enrolled 1196 patients who meet the 1990 ACR criteria for fibromyalgia syndrome (history of widespread pain and pain in 11 of 18 tender point sites on digital palpation), as well as the more detailed admission criteria outlined in the protocol. […] All randomized medications (placebo and milnacipran) were administered twice a day (BID). (i) Primary Efficacy Assessments: Patient Global Impression of Change (PGIC) administered to patients at visits […] Tx15/ET; Physical Component summary of SF-36 (SF-36 PCS) administered to patients at visits BL2/Tx0, […]) Secondary Efficacy Assessments: Time weighted average (AUC) of weekly average PED morning recall pain score; PGIC and SF-36 PCS administered to patients at visits Tx3 to Tx15. (iii) Additional Efficacy Measurements: The Fibromyalgia Impact Questionnaire (FIQ) total score and physical function, Beck Depression Inventory (BDI), the MOS-Sleep Index Scale, the Arizona Sexual Experiences Scale (ASEX), Patient pain 24 hour and 7 day recall VAS, the SF-36 individual domains, Patient Global Disease Status, Patient Global Therapeutic Benefit, the Multiple Ability Self-report Questionnaire (MASQ, cognitive function), the Multidimensional Health Assessment Questionnaire (MDHAQ), Multidimensional Fatigue Inventory (MFI), and diary assessments including current pain (morning, random daily, and evening reports); overall pain past week (weekly report), overall fatigue in the last week (weekly report), and the extent that pain kept the patient from caring for themselves (weekly report). The primary efficacy assessment of this study was a composite responder status defined by three domains of interest evaluated at visit Tx15. The domains measured were The primary efficacy parameter for an indication in the treatment of pain of fibromyalgia was the composite responder status based on the morning recall pain as recorded in the PED and patient global as recorded on the PGIC at Visit Tx15. The primary efficacy parameter for an indication in the treatment of FMS was the composite responder status based on two domains of pain and patient global as used above in the primary efficacy parameter for the treatment of the pain of fibromyalgia plus the additional domain of physical function as measured by the SF-36 PCS at Visit Tx15. […] A patient was classified as a responder for the treatment of FMS if he or she satisfied the responder criteria for the treatment of pain of fibromyalgia and the following additional criterion (at visit Tx15): • Improvement on the SF-36 PCS score from baseline by an amount at least equivalent to the minimal clinically important difference, as defined in the Statistical Analysis Plan. Table 1 summarizes 3-month results for the Baseline Observation Carried Forward (BOCF), Last Observation Carried Forward (LOCF) and study completer (OC) populations. LOCF is an analysis in which observations are carried forward to the last time point for patients who dropped out. The LOCF analysis treats the carried-forward data as observed data at the last time point. BOCF is an analysis that requires that the patient remain active in the trial to be evaluated for response. If a patient withdrew from the trial for any reason, they were classified as a non-responder irregardless of their pain and global scores at the time of withdrawal.
# [3] = target: NMDA receptor; conditions: read-out: IC50, NMDA receptor antagonistic properties; cited from earlier work
smiles,measurement,setting,value
CN(CCCN1c2ccccc2CCc2ccccc21)CC(=O)c1ccc(Cl)cc1 [lofepramine],effect on fatigue and fibromyalgia,[1],considerable improvement in fatigue and fibromyalgia
"CCN(CC)C(=O)[C@]1(c2ccccc2)C[C@@H]1CN (racemic) [milnacipran, cis-(±)-2-(aminomethyl)-N,N-diethyl-1-phenyl-cyclopropanecarboxamide]","Composite Pain responder rate, difference from placebo","[2]; BOCF, 100 mg/day (399)",6.35%
same,"Composite Pain responders, number","[2]; BOCF, 100 mg/day (399)",91
same,"Composite Pain responders, percent","[2]; BOCF, 100 mg/day (399)",(22.81%)
same,"Composite Syndrome responder rate, difference from placebo","[2]; BOCF, 100 mg/day (399)",5.81%
same,"Composite Syndrome responders, number","[2]; BOCF, 100 mg/day (399)",58
same,"Composite Syndrome responders, percent","[2]; BOCF, 100 mg/day (399)",(14.54%)
same,"PGIC Component responder rate, difference from placebo","[2]; BOCF, 100 mg/day (399)",8.39%
same,"PGIC Component responders, number","[2]; BOCF, 100 mg/day (399)",125
same,"PGIC Component responders, percent","[2]; BOCF, 100 mg/day (399)",(31.33%)
same,"Pain Component responder rate, difference from placebo","[2]; BOCF, 100 mg/day (399)",5.89%
same,"Pain Component responders, number","[2]; BOCF, 100 mg/day (399)",124
same,"Pain Component responders, percent","[2]; BOCF, 100 mg/day (399)",(31.08%)
same,"SF36 PCS Component responder rate, difference from placebo","[2]; BOCF, 100 mg/day (399)",5.62%
same,"SF36 PCS Component responders, number","[2]; BOCF, 100 mg/day (399)",108
same,"SF36 PCS Component responders, percent","[2]; BOCF, 100 mg/day (399)",(27.07%)
same,"Composite Pain responder rate, difference from placebo","[2]; BOCF, 200 mg/day (396)",8.29%
same,"Composite Pain responders, number","[2]; BOCF, 200 mg/day (396)",98
same,"Composite Pain responders, percent","[2]; BOCF, 200 mg/day (396)",(24.75%)
same,"Composite Syndrome responder rate, difference from placebo","[2]; BOCF, 200 mg/day (396)",5.16%
same,"Composite Syndrome responders, number","[2]; BOCF, 200 mg/day (396)",55
same,"Composite Syndrome responders, percent","[2]; BOCF, 200 mg/day (396)",(13.89%)
same,"PGIC Component responder rate, difference from placebo","[2]; BOCF, 200 mg/day (396)",9.64%
same,"PGIC Component responders, number","[2]; BOCF, 200 mg/day (396)",129
same,"PGIC Component responders, percent","[2]; BOCF, 200 mg/day (396)",(32.58%)
same,"Pain Component responder rate, difference from placebo","[2]; BOCF, 200 mg/day (396)",4.86%
same,"Pain Component responders, number","[2]; BOCF, 200 mg/day (396)",119
same,"Pain Component responders, percent","[2]; BOCF, 200 mg/day (396)",(30.05%)
same,"SF36 PCS Component responder rate, difference from placebo","[2]; BOCF, 200 mg/day (396)",1.02%
same,"SF36 PCS Component responders, number","[2]; BOCF, 200 mg/day (396)",89
same,"SF36 PCS Component responders, percent","[2]; BOCF, 200 mg/day (396)",(22.47%)
same,"Composite Pain responder rate, difference from placebo","[2]; LOCF, 100 mg/day (399)",7.61%
same,"Composite Pain responders, number","[2]; LOCF, 100 mg/day (399)",103
same,"Composite Pain responders, percent","[2]; LOCF, 100 mg/day (399)",(25.81%)
same,"Composite Syndrome responder rate, difference from placebo","[2]; LOCF, 100 mg/day (399)",6.56%
same,"Composite Syndrome responders, number","[2]; LOCF, 100 mg/day (399)",65
same,"Composite Syndrome responders, percent","[2]; LOCF, 100 mg/day (399)",(16.29%)
same,"PGIC Component responder rate, difference from placebo","[2]; LOCF, 100 mg/day (399)",9.65%
same,"PGIC Component responders, number","[2]; LOCF, 100 mg/day (399)",138
same,"PGIC Component responders, percent","[2]; LOCF, 100 mg/day (399)",(34.59%)
same,"Pain Component responder rate, difference from placebo","[2]; LOCF, 100 mg/day (399)",8.66%
same,"Pain Component responders, number","[2]; LOCF, 100 mg/day (399)",149
same,"Pain Component responders, percent","[2]; LOCF, 100 mg/day (399)",(37.34%)
same,"SF36 PCS Component responder rate, difference from placebo","[2]; LOCF, 100 mg/day (399)",6.89%
same,"SF36 PCS Component responders, number","[2]; LOCF, 100 mg/day (399)",129
same,"SF36 PCS Component responders, percent","[2]; LOCF, 100 mg/day (399)",(32.33%)
same,"Composite Pain responder rate, difference from placebo","[2]; LOCF, 200 mg/day (396)",11.35%
same,"Composite Pain responders, number","[2]; LOCF, 200 mg/day (396)",117
same,"Composite Pain responders, percent","[2]; LOCF, 200 mg/day (396)",(29.55%)
same,"Composite Syndrome responder rate, difference from placebo","[2]; LOCF, 200 mg/day (396)",6.68%
same,"Composite Syndrome responders, number","[2]; LOCF, 200 mg/day (396)",65
same,"Composite Syndrome responders, percent","[2]; LOCF, 200 mg/day (396)",(16.41%)
same,"PGIC Component responder rate, difference from placebo","[2]; LOCF, 200 mg/day (396)",13.19%
same,"PGIC Component responders, number","[2]; LOCF, 200 mg/day (396)",151
same,"PGIC Component responders, percent","[2]; LOCF, 200 mg/day (396)",(38.13%)
same,"Pain Component responder rate, difference from placebo","[2]; LOCF, 200 mg/day (396)",11.22%
same,"Pain Component responders, number","[2]; LOCF, 200 mg/day (396)",158
same,"Pain Component responders, percent","[2]; LOCF, 200 mg/day (396)",(39.90%)
same,"SF36 PCS Component responder rate, difference from placebo","[2]; LOCF, 200 mg/day (396)",2.09%
same,"SF36 PCS Component responders, number","[2]; LOCF, 200 mg/day (396)",109
same,"SF36 PCS Component responders, percent","[2]; LOCF, 200 mg/day (396)",(27.53%)
same,"Composite Pain responder rate, difference from placebo","[2]; OC, 100 mg/day",13.37%
same,"Composite Pain responders, percent","[2]; OC, 100 mg/day",(38.56%)
same,"Composite Pain, m/n = # of responders/# of patients included","[2]; OC, 100 mg/day",91/236
same,"Composite Syndrome responder rate, difference from placebo","[2]; OC, 100 mg/day",11.22%
same,"Composite Syndrome responders, percent","[2]; OC, 100 mg/day",(24.58%)
same,"Composite Syndrome, m/n = # of responders/# of patients included","[2]; OC, 100 mg/day",58/236
same,"PGIC Component responder rate, difference from placebo","[2]; OC, 100 mg/day",15.70%
same,"PGIC Component responders, percent","[2]; OC, 100 mg/day",(47.53%)
same,"PGIC Component, m/n = # of responders/# of patients included","[2]; OC, 100 mg/day",125/263
same,"Pain Component responder rate, difference from placebo","[2]; OC, 100 mg/day",13.92%
same,"Pain Component responders, percent","[2]; OC, 100 mg/day",(52.32%)
same,"Pain Component, m/n = # of responders/# of patients included","[2]; OC, 100 mg/day",124/237
same,"SF36 PCS Component responder rate, difference from placebo","[2]; OC, 100 mg/day",11.40%
same,"SF36 PCS Component responders, percent","[2]; OC, 100 mg/day",(41.06%)
same,"SF36 PCS Component, m/n = # of responders/# of patients included","[2]; OC, 100 mg/day",108/263
same,"Composite Pain responder rate, difference from placebo","[2]; OC, 200 mg/day",20.39%
same,"Composite Pain responders, percent","[2]; OC, 200 mg/day",(45.58%)
same,"Composite Pain, m/n = # of responders/# of patients included","[2]; OC, 200 mg/day",98/215
same,"Composite Syndrome responder rate, difference from placebo","[2]; OC, 200 mg/day",12.22%
same,"Composite Syndrome responders, percent","[2]; OC, 200 mg/day",(25.58%)
same,"Composite Syndrome, m/n = # of responders/# of patients included","[2]; OC, 200 mg/day",55/215
same,"PGIC Component responder rate, difference from placebo","[2]; OC, 200 mg/day",18.76%
same,"PGIC Component responders, percent","[2]; OC, 200 mg/day",(50.59%)
same,"PGIC Component, m/n = # of responders/# of patients included","[2]; OC, 200 mg/day",129/255
same,"Pain Component responder rate, difference from placebo","[2]; OC, 200 mg/day",16.44%
same,"Pain Component responders, percent","[2]; OC, 200 mg/day",(54.84%)
same,"Pain Component, m/n = # of responders/# of patients included","[2]; OC, 200 mg/day",119/217
same,"SF36 PCS Component responder rate, difference from placebo","[2]; OC, 200 mg/day",5.24%
same,"SF36 PCS Component responders, percent","[2]; OC, 200 mg/day",(34.90%)
same,"SF36 PCS Component, m/n = # of responders/# of patients included","[2]; OC, 200 mg/day",89/255
same,IC50,[3],~6.3 µM
